Experimental findings from PubChem BioAssay AID651676 (Sanford-Burnham Center for Chemical Genomics, 2012) are described below.

The structures appear in SMILES notation. Calls of active or inactive are those of the source.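 The calls were made as follows: active = EC50 concentration giving half the maximal stem cell survival boost at or below 20 µM; inactive = the rest.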 A value given as a limit tells only on which side of the number the result lay.

As usually defined, the EC50 is the midpoint of the concentration-response curve.

This assay deals with hiPSC single-cell survival, ATPlite luminescence. The assay can be described thus: hiPSC dissociated-cell viability enhancement – luminescence, SAR follow-up (AID 651676).
With `CC(C)n1c(O)c(C2c3cc(Cl)ccc3Oc3[nH]c(=O)n(C(C)C)c(=O)c32)c(=O)[nH]c1=O` (stereo not drawn), the EC50 was 42.3 µM (inactive).

In the case of `COc1ccc(Cn2c(O)c(C=NCCCn3ccnc3)c(=O)[nH]c2=O)cc1`, the EC50 was > 80 µM (inactive).

As for `O=C(OCn1ncc(Br)c(Br)c1=O)c1ccccc1Cl`, the EC50 is 6.27 µM.

On to `COc1ccc(NC(=O)/C(Cl)=C(/Cl)S(=O)(=O)Cc2ccc(C)cc2)cn1`, for which the EC50 is 16.6 µM.

Turning to `COc1ccc(CS(=O)(=O)/C(Cl)=C(/Cl)C(=O)Nc2ccc(OC)nc2)cc1`, the concentration giving a half-maximal response (EC50) is 14.1 µM.

For `O=S(=O)(c1cccc2cnccc12)N1CCCNCC1`, the EC50 is 7.12 µM.

In the case of `NC(=O)c1ccc(NC(=O)CCC(=O)c2cccs2)cc1`, the concentration for a half-maximal effect (EC50) is 10.5 µM.

As for `Cn1c(=O)c2c(ncn2CC(=O)NCc2cccnc2)n(C)c1=O`, the EC50 is > 80 µM (inactive).

Consider `O=C(Nc1nc(-c2ccncc2)cs1)C1COc2ccccc2O1` (stereo not drawn), for which the EC50 is 3.63 µM.

Consider `O=C(Nc1ccncc1)c1cc(S(=O)(=O)N2CCCC2)ccc1Cl`, for which the EC50 was 20.6 µM (inactive).

`CC(C)NC(=O)c1ccc2c(c1)S(=O)(=O)c1ccccc1C2=O`: the EC50 is > 80 µM (inactive).

Take `O=C(Nc1ccncc1)c1cc(S(=O)(=O)N2CCOCC2)ccc1Cl`: the EC50 was 26.3 µM (inactive).

As to `O=C(OCn1ncc(Cl)c(Cl)c1=O)c1cccc(C(F)(F)F)c1`, the EC50 was 21.6 µM (inactive).
